According to paper PMC6691587, “New CXCR1/CXCR2 inhibitors represent an effective treatment for kidney or head and neck cancers sensitive or refractory to reference treatments” (Theranostics, 2019):
Like-named read-outs stand apart in the source and are kept apart here.

Columns and labels:
[1] = tested on: CAL33; assay: XTT cell viability assay, CAL33 HNSCC cells; assay type: cell-based, human; details: for IC50: Homo sapiens, CAL-33
Protocol: (§1) Fifty microliters of sodium 3′-[1-phenylaminocarbonyl)-3,4-tetrazolium]-bis(4-methoxy-6-nitro) benzene sulfonic acid hydrate (XTT) reagent was added to each well. The assay is based on the cleavage of the yellow tetrazolium salt XTT to form an orange formazan dye by metabolically active cells. This bio-reduction occurs in viable cells only and is related to NAD(P)H production through glycolysis. Therefore, the amount of formazan dye measured at 490 nm directly correlated with the number of metabolically active cells reflecting cell proliferation and viability. Each assay was performed in quadruplicate.

[2] = tested on: RCC4; assay: XTT cell viability assay, RCC4 RCC cells; assay type: cell-based, human; details: Homo sapiens, RCC4, 48 h, SD 10%, mean of three experiments, read-out: IC50 R4 (Kidney RCC)
Protocol: as §1

[3] = tested on: 786-O; assay: XTT cell viability assay, 786-O RCC cells; assay type: cell-based, human; details: for IC50: Homo sapiens, 786-0
Protocol: as §1

[4] = tested on: MDA-MD-231; assay: XTT cell viability assay, breast cancer cells; assay type: cell-based, human; details: Homo sapiens, 48 h, SD 10%, mean of three experiments
Protocol: as §1

[5] = tested on: OCI-AML3; assay: XTT cell viability assay, OCI-AML3 AML cells; assay type: cell-based, human; details: Homo sapiens, OCI-AML-3, 48 h, SD 10%, mean of three experiments, read-out: IC50 L3 (AML)
Protocol: as §1

[6] = tested on: SKM1; assay: XTT cell viability assay, SKM1 MDS cells; assay type: cell-based, human; details: Homo sapiens, SKM-1, 48 h, SD 10%, mean of three experiments, read-out: IC50 SK (MDS)
Protocol: as §1

[7] = tested on: K562; assay: XTT cell viability assay, K562 CML cells; assay type: cell-based, human; details: Homo sapiens, K562, 48 h, SD 10%, mean of three experiments
Protocol: as §1

[8] = tested on: uveal melanoma cells (Mel202); assay: Cell viability, uveal melanoma cells; assay type: cell-based
Protocol: as §1
(§2) To determine the selectivity of the activity of the substances tested, the selectivity index (SI) was calculated according to the equation previously described where SI = IC50 of a compound in a normal cell line/IC50 of the same compound in cancer cell line. The IC50 is the concentration required to kill 50% of the cell population.

[9] = tested on: primary kidney tumor cells (CC); assay: Cell viability, primary kidney tumor cells CC; assay type: cell-based
Protocol: as §1
(§3) For the experiments with C29, we confirmed all the results by evaluating the cell viability. Cell viability and cell death was assessed using the ADAM-MC apparatus (NanoEnTek, Guro-gu, Seoul, Korea) based on fluorescent propidium iodide staining according to the manufacturer's instructions.
as §2

[10] = tested on: primary kidney tumor cells (TF); assay: Cell viability, primary kidney tumor cells TF; assay type: cell-based
Protocol: as §1, §3, §2

[11] = target: T1, CXCR1 (Homo sapiens, UniProt P25024); assay: Membrane-associated CXCR1 level in HuVEC by flow cytometry; assay type: cell-based; details: CXCL7 25 ng/ml 1 h, C29 2.5 µmol/L
T1 construct: CXCR1/2 are expressed on endothelial cells and participate in ELR^+CXCL-mediated angiogenesis; endogenous in cells; host or cells: HuVEC
T1 sequence (P25024 whole entry): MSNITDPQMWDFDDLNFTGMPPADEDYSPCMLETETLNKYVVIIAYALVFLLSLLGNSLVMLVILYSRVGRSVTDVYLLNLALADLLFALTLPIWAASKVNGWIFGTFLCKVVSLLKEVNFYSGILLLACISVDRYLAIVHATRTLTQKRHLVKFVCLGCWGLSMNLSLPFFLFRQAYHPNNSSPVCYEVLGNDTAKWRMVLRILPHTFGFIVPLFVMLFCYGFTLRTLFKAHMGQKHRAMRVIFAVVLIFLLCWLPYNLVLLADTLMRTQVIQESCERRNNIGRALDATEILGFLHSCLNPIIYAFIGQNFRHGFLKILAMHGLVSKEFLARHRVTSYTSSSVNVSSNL

[12] = tested on: HuVEC; assay: Boyden chamber migration assay; assay type: cell-based, human; details: CXCL7 50 ng/ml, 2.5 µmol/L compound
Protocol: CXCL7 or VEGFA-stimulated chemotaxis assays were monitored using modified Boyden chambers containing polycarbonate membranes (8-μm pores, Transwell; Corning, Sigma). Cells were seeded onto the upper side of the filters and chambers were placed on 24-well plates containing CXCL7 (50ng/ml) or VEGFA (50ng/ml). Cell migration was followed for 24 h at 37°C in 5% CO2. Migratory cells on the lower membrane surface were fixed in 3% paraformaldehyde, stained with 0.1% crystal violet.

[13] = tested on: cisplatin-resistant CAL27 cells (CAL27R); assay: XTT cell viability assay, cisplatin-resistant CAL27 cells; assay type: cell-based, human; details: 1 to 10 µM 48 h, 2.5 µM 24 to 96 h
Protocol: as §1

[14] = tested on: panel of human tumor cell lines; assay: XTT screening on a panel of tumor cell lines; assay type: cell-based; details: Homo sapiens; read-out: IC50 values for several cancer cell lines
Protocol: as §1

[15] = tested on: 786, 786R, CAL27 and CAL27R cells; assay: Apoptosis analysis (annexin-V/PI flow cytometry); assay type: cell-based, human; details: sensitive and resistant cells, 2.5 µM, 48 h
Protocol: (§4) Apoptosis analysis: After stimulation, cells were washed with ice-cold PBS and were stained with the annexin-V-fluo staining kit (Roche, Meylan, France) according to the manufacturer's procedure. Fluorescence was measured using the FL2 (AV) and FL3 (propidium iodide, PI) channels of a fluorescence-activated cell sorter apparatus (Calibur cytometer).

[16] = tested on: caspase 3; assay: Caspase 3 activity assay; assay type: cell-based, human; details: 786, 786R, CAL27, CAL27R; 2.5 and 5 µM, 48 h
Protocol: Caspase assays have already been described. Briefly, the caspase 3 activity was assessed in quadruplicate using z-DEVD-AMC as substrate and the fluorescence were assessed.

[17] = tested on: TF and CC cells; assay: FACS analysis of apoptotic markers, primary tumor cells; assay type: cell-based; details: C29 at 1 µmol/L
Protocol: as §4

[18] = tested on: normal cells (15S); assay: FACS analysis of apoptotic markers, normal cells; assay type: cell-based; details: C29 at 1 µmol/L
Protocol: as §4

[19] = tested on: 786-O cells; assay: Ectopic model of RCC (786-O xenograft); assay type: in vivo, nude (nu/nu) female mice; details: C29 100 µg i.p. three per week; danirixin 200 µg three times a week; sunitinib 50 mg/kg oral gavage five times a week
Protocol: These studies were carried out in strict accordance with the recommendations in the Guide for the Care and Use of Laboratory Animals. Our experiments were approved by the ''Comité National Institutionnel d'Ethique pour l'Animal de Laboratoire'' (reference: PEA-255 and PEA-277). Cells were injected subcutaneously into the flank of 5-week-old nude (nu/nu) female mice (Janvier). When the tumor reached 100 mm^3, mice were treated. The tumor volume was determined with a caliper (v = L*l2*0.5).
2- Seven million 786-O cells were injected subcutaneously.

O=C(Nc1cccc(Cl)c1)Nc1nc2ccc([N+](=O)[O-])cc2s1 [C29]
IC50 ([1]; CXCR1+/CXCR2+, read-out: IC50 CAL33): 4 µM
IC50 ([1]; XTT assay, 48 h, SD 10%, mean of three experiments, read-out: IC50 33 (HNSCC)): 4 µM
Selectivity index CAL33 ([1]; SI = IC50 in normal cells (15S)/IC50 in CAL33): 3.13
IC50 [2]: 5 µM
IC50 ([3]; CXCR1+/CXCR2+, read-out: IC50 786-O): 2 µM
IC50 ([3]; XTT assay, 48 h, SD 10%, mean of three experiments, read-out: IC50 786 (Kidney RCC)): 2 µM
Selectivity index 786-O ([3]; SI = IC50 in normal cells (15S)/IC50 in 786-O): 6.25
viability of sensitive 786-O RCC cells compared with sunitinib ([3]; XTT, 1 to 10 µM 48 h, 2.5 µM 24 to 96 h): as efficiently as sunitinib
IC50 [4]: 2.5 µM
IC50 [5]: 4 µM
IC50 [6]: 5 µM
IC50 [7]: 2 µM
proliferation/survival of uveal melanoma cells (Mel202) ([8]; 2.5 µmol/L): did not affect
IC50 ([8]; Mel202, CXCR1-/CXCR2-): 10 µM
Selectivity index Mel202 ([8]; SI = IC50 in normal cells (15S)/IC50 in Mel202): 1.25
IC50 ([9]; CXCR1+/CXCR2+): 2 µM
proliferation of primary kidney tumor cells CC ([9]; Figure S8A-B): significantly decreased
Selectivity index CC ([9]; SI = IC50 in normal cells (15S)/IC50 in CC): 6.25
IC50 ([10]; CXCR1+/CXCR2+): 3.2 µM
proliferation of primary kidney tumor cells TF ([10]; Figure S8A-B): significantly decreased
Selectivity index TF ([10]; SI = IC50 in normal cells (15S)/IC50 in TF): 3.91
CXCR1 levels at the plasma membrane [11]: increased
CXCL7-dependent migration of HuVECs [12]: decreased
effect on cisplatin-resistant CAL27 cell viability [13]: equivalent
IC50 [14]: < 20 µM
cell death (annexin-V/PI) [15]: induced cell death
caspase 3 activity [16]: increase
apoptotic markers in TF and CC cells [17]: detected apoptotic markers
apoptotic markers in normal cells (15S) [18]: not the case for normal cells
efficacy on tumor growth, 786-O xenograft [19]: as efficient as a dose of 50 mg/kg administered by oral gavage
